Experimental data taken from article PMC8856561, “Pharmacological and genetic activation of cAMP synthesis disrupts cholesterol utilization in Mycobacterium tuberculosis” (PLoS Pathogens, 2022).
pEC50, pIC50: −log10 of the molar value. ≈ marks a conversion by molar mass, not a printed value. Like-named read-outs stand apart in the source and are kept apart here.

Key:
[1] = tested on: Mtb in murine macrophages; assay: Mtb replication in macrophages (intramacrophage EC50); assay type: cell-based; conditions: Mycobacterium tuberculosis, Macrophage
[2] = tested on: CYP1A2, CYP2C9, CYP2C19, CYP2D6, CYP3A4; assay: in vitro; conditions: human, pH 7.2
in vitro [3] = conditions: CD-1, mouse, plasma
[4] = 0.98 µM, pH 7.2
Procedure: Liver microsomal stability
(§1) Liver microsomes from mouse (Xenotech), human (Corning) rat (Xenotech) and dog (Xenotech)
(§2) were prepared in potassium phosphate buf fer (100 mM) pH 7. 2. Experimental compounds were
(§3) dissolved in DMSO (100%) to a stock concentration of 10 mmol. A working compound solution
(§4) was made by diluting 5 µL of compound stock into 495 µL of acetonitrile (100%) to the final
(§5) concentration of compound (100 µM) and acetonitrile (99%). Similarly, positive control
(§6) compounds (Testosterone, Dichlofenac, and Propafenone) were dissolved in DMSO (100% to a
(§7) stock concentration of 10 mM in DMSO, and were diluted with 495 µL of acetonitrile (100%) to
(§8) the final concentration of compound (100 µM) and acetonitrile (99%). NADPH•4Na was dissolved
(§9) into a 10 mM MgCl2 solution (10 unit/mL) generating as a 10x cofactor stock. Pre-warmed
(§10) incubation plates were filled with 445 µL potassium phosphate buffer and incubated for 10 min at
(§11) 37°C with constant shaking. Liver microsomes (54 µL) liver and NADPH stock (6 µL) were added
(§12) to the plates. Working solution of compounds (5 µL) was added into the incubation plates
(§13) containing microsomes and mixed thoroughly before incubating at 37°C for 60 min under constant
(§14) shaking at 100 rpm. Reactions were stopped by the addition of 100 µl cold acetonitrile (100%)
(§15) containing the internal standards tolbutamide (200 ng/mL) and labetalol (200 ng/mL). All plates
(§16) were shaken for 10 min, then centrifuged at 4000 rpm for 20 minutes at 4°C. The cell free
(§17) supernatant was transferred into HPLC water and mixed by shaking the plate for 10 min minutes
(§18) prior to metabolite quantification by LC-MS/MS a nalysis.
(§19) The equation of first order kinetics was used to calculate T1/2 and CLin t(mic ) (µL/min/mg):
Equation of first order kinetics:
(§20) <=@(#<S) X= Y<@Z[ \] #_⁄#‘ #<SZ[a[#$b cZ[@L<= <= ZL$S@<[=
𝐶𝐿 = 𝐶𝐿 ∙ #_ #<SZ[a[#La ∙ _ b<Y LZ
(§21) <=@(b<Y LZ) <=@(#<S) _ b<Y LZ D_ e[fg hL<_i@
(§22) T1/2 is half life and CLin t ( mic ) is the intrinsic clearance
(§23) CLin t ( mic ) = 0.693/half life/mg microsome protein per mL
(§24) CLin t(l iv e r) = CLin t ( mic ) * mg microsomal protein/g liver weight * g liver weight/kg body weight
Extraction ratio calculation
(§25) Extraction ratio (ER) = CLH/QH= CLint(liver) / (CLint(liver) + Qh)
Qh is Hepatic Blood Flow (mL/min/kg)

in vitro [5] = conditions: human
[6] = 0.98 µM, pH 7.2; remark: listed apart in the source
Procedure: Liver microsomal stability
as §1, §2, §3, §4, §5, §6, §7, §8, §9, §10, §11, §12, §13, §14, §15, §16, §17, §18, §19
Equation of first order kinetics:
as §20
𝐶𝐿 = 𝐶𝐿 ∙ #_ #<SZ[a[#La ∙ _ b<Y LZ
as §21, §22, §23, §24
Extraction ratio calculation
as §25
Qh is Hepatic Blood Flow (mL/min/kg)

Mtb [7] = assay: microbe, parasite or virus in culture; assay type: cell-based, Mycobacterium tuberculosis; conditions: Mycobacterium tuberculosis, cholesterol media
Mtb [8] = assay: microbe, parasite or virus in culture; assay type: cell-based; conditions: Mycobacterium tuberculosis; read-out: 7H9 OADC EC50
in vitro [9] = conditions: human; remark: listed apart in the source
[10] = 0.98 µM, pH 7.2; remark: listed apart in the source
Procedure: Liver microsomal stability
as §1, §2, §3, §4, §5, §6, §7, §8, §9, §10, §11, §12, §13
(§26) shaking at 100 rpm. Reactions were stopped by the addition of 100 µl cold acetonitrile (100%) […]
(§27) prior to metabolite quantification by LC-MS/MS a nalysis. […]

[11] = 0.98 µM, pH 7.2; remark: listed apart in the source
Procedure: Liver microsomal stability
as §1, §2, §3, §4, §5, §6, §7, §8, §9, §10, §11, §12, §13, §26, §27

physchem = conditions: pH 6.8, aqueous buffer, kinetic from dmso stock
hERG potassium channel = hERG potassium channel (Homo sapiens, UniProt Q12809); assay: Manual patch clamp assay for hERG inhibition
in vitro [12] = conditions: human, plasma
Mtb [13] = assay: microbe, parasite or virus in culture; assay type: cell-based; conditions: Mycobacterium tuberculosis; media with cholesterol and acetate
Erdman Mtb [14] = assay: Mouse infection, BALB/c; assay type: in vivo, BALB/c mice
Mtb [15] = assay: Quantification of bacterial cAMP in Mtb; assay type: cell-based, Mycobacterium tuberculosis
Mtb [16] = assay type: cell-based, Mycobacterium tuberculosis; conditions: 10 μM
Mtb [17] = assay type: cell-based, Mycobacterium tuberculosis; conditions: media containing fatty acid
Erdman Mtb [18] = assay: Mouse infection, C3HeB/FeJ; assay type: in vivo, C3HeB/FeJ mice; conditions: 50 mg/kg oral once-daily weeks 4-8, intranasal infection
Mtb [19] = assay type: cell-based, Mycobacterium tuberculosis; conditions: for 14CO2 release from [4-14C]-cholesterol: 10 μM
MKR strain of Mtb = tested on: MKR strain of Mtb; parameters: method as in PMID 33542438; conditions: infected macrophages ref 13; cited from earlier work
[20] = 30mg/kg oral once-daily weeks 4-8, intranasal infection, BALB/c
[21] = 50 mg/kg oral once-daily weeks 4-8, intranasal infection, BALB/c

Chain of hERG potassium channel (Q12809 whole entry): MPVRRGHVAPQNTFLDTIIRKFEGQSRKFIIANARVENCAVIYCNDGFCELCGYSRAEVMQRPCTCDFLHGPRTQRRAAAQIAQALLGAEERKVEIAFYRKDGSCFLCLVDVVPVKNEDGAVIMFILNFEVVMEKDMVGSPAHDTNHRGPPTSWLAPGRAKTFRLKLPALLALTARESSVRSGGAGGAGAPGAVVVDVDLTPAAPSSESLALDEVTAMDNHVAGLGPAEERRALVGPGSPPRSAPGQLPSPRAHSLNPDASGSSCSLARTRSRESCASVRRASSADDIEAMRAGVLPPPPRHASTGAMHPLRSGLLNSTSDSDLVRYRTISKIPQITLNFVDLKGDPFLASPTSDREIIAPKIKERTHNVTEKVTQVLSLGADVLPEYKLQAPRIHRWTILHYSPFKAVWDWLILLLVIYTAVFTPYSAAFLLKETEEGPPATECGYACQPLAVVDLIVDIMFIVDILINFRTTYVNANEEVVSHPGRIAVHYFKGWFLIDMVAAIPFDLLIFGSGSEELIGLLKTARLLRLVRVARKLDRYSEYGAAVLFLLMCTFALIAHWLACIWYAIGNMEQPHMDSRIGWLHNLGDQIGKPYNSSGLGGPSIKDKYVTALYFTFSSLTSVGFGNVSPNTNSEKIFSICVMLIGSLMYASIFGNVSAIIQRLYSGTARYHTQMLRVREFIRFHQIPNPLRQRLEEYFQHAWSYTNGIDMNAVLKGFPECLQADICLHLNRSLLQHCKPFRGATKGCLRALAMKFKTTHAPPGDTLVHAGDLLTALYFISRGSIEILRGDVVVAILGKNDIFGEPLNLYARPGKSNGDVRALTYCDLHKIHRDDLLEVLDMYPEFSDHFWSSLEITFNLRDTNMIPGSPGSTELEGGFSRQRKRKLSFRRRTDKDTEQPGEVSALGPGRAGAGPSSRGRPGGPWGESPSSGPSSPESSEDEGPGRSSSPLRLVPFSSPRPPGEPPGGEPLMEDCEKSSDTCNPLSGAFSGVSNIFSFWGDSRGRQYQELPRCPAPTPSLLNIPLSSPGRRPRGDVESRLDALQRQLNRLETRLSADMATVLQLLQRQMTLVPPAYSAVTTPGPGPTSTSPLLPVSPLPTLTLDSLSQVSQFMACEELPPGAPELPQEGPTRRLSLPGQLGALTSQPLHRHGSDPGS

Structure (SMILES) | pEC50 [1] | IC50 at 10 min [2] [µM] | fraction unbound at 4 h (in vitro [3]) | ER human [4] | CC50 at 72 h (in vitro [5]) [µM] | ER mouse [6] | pEC50 (Mtb [7]; read-out: Cholesterol EC50) | pEC50 (Mtb [8]) | CC50 at 72 h (in vitro [9]) [µM] | ER dog [10] | ER rat [11] | solubility at 24 h (physchem) [µM] | pIC50 (hERG potassium channel) | fraction unbound at 4 h (in vitro [12]) | pEC50 (Mtb [13]) | also measured
Cn1ncnc1CC(=O)N1CC2CC1CC2c1nc(-c2ccc(Cl)c(F)c2)no1 (centres unmarked) [mCLF178] | < 4.70 | > 30 | 0.116 | 0.3 | > 20 | 0.3 | 7.08 | < 4.30 | > 20 | 0.3 | 0.2 | 186 (≈ 77.5 µg/mL) | 4.64 | 0.111 |  | 
Cn1ncnc1CC(=O)N1CCC(c2nc(-c3ccc(Cl)c(Cl)c3)no2)CC1 [mCLB073, 1-(4-(3-(3,4-dichlorophenyl)-1,2,4-oxadiazol-5-yl)-1-piperidinyl)-2-(2-methyl-2H-1,2,4-triazol-3-yl)-1-ethanone] | 5.92 | > 50 | 0.037 | 0.3 | > 20 | 0.3 | 7.57 | < 4.30 | > 20 | 0.3 | 0.2 | 160 (≈ 67.4 µg/mL) | 4.86 | 0.024 | < 4.30 | decrease of extent of lung pathology (Erdman Mtb [14]; [20]): ~ 45%; reduction in lung CFUs (Erdman Mtb [14]; [20]): ~ 0.4 log10; bacterial burden in the lungs when added to a sub-optimal dose of rifampicin (Erdman Mtb [14]; mouse, in vivo): did not increase the bacterial burden; reduction in lung CFUs (Erdman Mtb [14]; mouse, in vivo): ~ 0.4 log10; cAMP synthesis (Mtb [15]; Figs 3B and S2C): activates cAMP synthesis
Cc1nonc1CC(=O)N1CCC(n2nnc(-c3ccc(F)cc3)n2)CC1 [V-59, 1-(4-(5-(4-fluorophenyl)-2H-tetrazol-2-yl)piperidin-1-yl)-2-(4-methyl-1,2,5-oxadiazol-3-yl)ethan-1-one] | 6.52 | > 30 | 0.173 | 0.3 | > 20 | 0.3 |  | < 4.30 | > 20 |  |  | 4.63 (≈ 1.72 µg/mL) | 5.05 |  | < 4.30 | reduction in lung CFUs (Erdman Mtb [14]; [21]): ~ 0.4 log10; reduction of extent of lung inflammation (Erdman Mtb [14]; [21]): ~ 50%; decrease of prpD'::GFP signal (Mtb [16]; CompFull strain): ~ 90%; decrease of prpD'::GFP signal (Mtb [16]; WT): ~ 50%; prpD'::GFP signal (Mtb [16]; ΔRv1625c or CompD204 strains, cholesterol media or macrophage infection): did not impact; pEC50 (Mtb [7]; read-out: EC50 in cholesterol media): 6.15; cAMP induction (Mtb [15]): ~ 70 fold; cAMP induction (Mtb [15]; CompFull strain, 24 hours): ~ 140 fold; 14CO2 released from breakdown of [U-14C]-palmitate (Mtb [17]): no measurable effect; reduction in lung CFUs (Erdman Mtb [18]): ~ 0.5 log10; decrease of 14CO2 release from [4-14C]-cholesterol (Mtb [19]): ~ 89%; 14CO2 release from [4-14C]-cholesterol (Mtb [19]; CompD204 strain lacking cyclase domain): did not prevent; 14CO2 release from [4-14C]-cholesterol (Mtb [19]; CompFull strain): inhibited; intracellular survival of MKR strain (MKR strain of Mtb): selectively reduced intracellular survival
Cc1nonc1CC(=O)N1CCC(c2nc(-c3ccc(F)cc3)no2)CC1 [mCIS635] | 6.57 | > 50 | 0.056 | 0.3 | > 20 | 0.4 | 6.82 | < 4.30 | > 20 |  |  | 34.4 (≈ 12.8 µg/mL) | 5.02 |  | < 4.30 | 
